The source of these data is ChEMBL document CHEMBL1133292, “Some selective reactions of moenomycin A” (Bioorg Med Chem Lett, 2000).

Molecules are shown by their SMILES.

Experiment [1] in a line: Compound was coli. Further details: species or system Escherichia coli; call rule not given here.
The nature of experiment [2]: Compound was coli; Inactive. Further details: species or system Escherichia coli.

`C=CC(C)(CC/C=C(\C)CCC=C(C)C)C(O)CO[C@H](COP(=O)(O)O[C@H]1O[C@@H](C(N)=O)[C@@](C)(O)[C@H](OC(N)=O)[C@@H]1O[C@@H]1O[C@@H](CO[C@@H]2O[C@@H](CO)[C@@H](O)[C@H](O)[C@@H]2O)[C@@H](O[C@@H]2O[C@@H](C)[C@@H](O[C@@H]3O[C@@H](C(N)=O)[C@H](O)[C@H](O)[C@@H]3O)[C@H](O)[C@@H]2NC(C)=O)[C@H](O)[C@@H]1NC(C)=O)C(=O)O` (stereo not given in full): the IC50 in experiment [1] is on record as 106 nM l-1.

Take `CCCCCCCCCCCCCCNCCO[C@H](COP(=O)(O)O[C@H]1O[C@@H](C(N)=O)[C@@](C)(O)[C@H](OC(N)=O)[C@@H]1O[C@@H]1O[C@@H](CO[C@@H]2O[C@@H](CO)[C@@H](O)[C@H](O)[C@@H]2O)[C@@H](O[C@@H]2O[C@@H](C)[C@@H](O[C@@H]3O[C@@H](C(N)=O)[C@H](O)[C@H](O)[C@@H]3O)[C@H](O)[C@@H]2NC(C)=O)[C@H](O)[C@@H]1NC(C)=O)C(=O)O`: the IC50 in experiment [1] was found to be 247 nM l-1.

Consider `CCCCCCCCc1ccc(NCCO[C@H](COP(=O)(O)O[C@H]2O[C@@H](C(N)=O)[C@@](C)(O)[C@H](OC(N)=O)[C@@H]2O[C@@H]2O[C@@H](CO[C@@H]3O[C@@H](CO)[C@@H](O)[C@H](O)[C@@H]3O)[C@@H](O[C@@H]3O[C@@H](C)[C@@H](O[C@@H]4O[C@@H](C(N)=O)[C@H](O)[C@H](O)[C@@H]4O)[C@H](O)[C@@H]3NC(C)=O)[C@H](O)[C@@H]2NC(C)=O)C(=O)O)cc1`, for which the IC50 in experiment [1] is recorded as 31 nM l-1.

Consider `CC(=O)N[C@@H]1[C@H](O[C@H]2[C@H](O)[C@H](NC(C)=O)[C@H](O[C@@H]3[C@@H](OP(=O)(O)OC[C@@H](OCCN(C4CCCCC4)C4CCCCC4)C(=O)O)O[C@@H](C(N)=O)[C@@](C)(O)[C@@H]3OC(N)=O)O[C@H]2CO[C@@H]2O[C@@H](CO)[C@@H](O)[C@H](O)[C@@H]2O)O[C@@H](C)[C@@H](O[C@@H]2O[C@@H](C(N)=O)[C@H](O)[C@H](O)[C@@H]2O)[C@@H]1O`, for which the IC50 result in experiment [2] is “Not Active”.

In experiment [1], `C=C(C/C=C(\C)CCC=C(C)C)CCC(C)(C)/C=C/CC/C(C)=C/CO[C@@H](COP(=O)(O)O[C@H]1O[C@H](C(N)=O)[C@@](C)(O)[C@H](OC(N)=O)[C@H]1O[C@@H]1O[C@H](CO[C@@H]2O[C@H](CO)[C@@H](O)[C@H](O)[C@H]2O)[C@@H](O[C@@H]2O[C@H](C)[C@@H](O[C@@H]3O[C@H](C(=O)NC4=C(O)CCC4=O)[C@H](O)[C@H](O)[C@H]3O)[C@H](O)[C@H]2NC(C)=O)[C@H](O)[C@H]1NC(C)=O)C(=O)O` [MOENOMYCIN A] returned an IC50 of 1.5 nM l-1.
